BigSolDB 2.1

O=P(NCc1cccc(CNP(=O)(Oc2ccccc2)Oc2ccccc2)c1)(Oc1ccccc1)Oc1ccccc1
solubility (mole fraction)
Conditions	in 1-methoxy-2-propanol	in 1-methoxy-2-propyl acetate	in 1-propoxy-2-propanol	in 2-(2-methoxypropoxy) propanol
293.15 K	0.000609	0.00319	0.000508	0.00267
298.15 K	0.000758	0.00373	0.000636	0.00331
303.15 K	0.000936	0.0043	0.000766	0.00401
308.15 K	0.00114	0.0049	0.000964	0.00487
313.15 K	0.00138	0.00547	0.00121	0.00584
318.15 K	0.00169	0.00635	0.00144	0.00714
323.15 K	0.00204	0.00708	0.00182	0.00829
328.15 K	0.00255	0.0079	0.00216	0.00995
333.15 K	0.00305	0.00891	0.00259	0.0116
338.15 K	0.00374	0.01	0.00316	0.0138
343.15 K	0.00432	0.0115	0.00374	0.0156

O=P(Oc1ccccc1)(Oc1ccccc1)N1CCN(P(=O)(Oc2ccccc2)Oc2ccccc2)CC1
solubility (mole fraction)
Conditions	in 1-methoxy-2-propanol	in 1-methoxy-2-propyl acetate	in 1-propoxy-2-propanol	in 2-(2-methoxypropoxy) propanol
293.15 K	0.000356	0.000351	0.000353	0.000974
298.15 K	0.000447	0.000443	0.000445	0.00117
303.15 K	0.000589	0.000517	0.000564	0.00139
308.15 K	0.000782	0.00063	0.000715	0.00167
313.15 K	0.00102	0.000762	0.000893	0.00199
318.15 K	0.00132	0.000945	0.00112	0.00236
323.15 K	0.00168	0.00115	0.00141	0.0029
328.15 K	0.00215	0.00141	0.00177	0.00344
333.15 K	0.00282	0.0017	0.00219	0.00408
338.15 K	0.00367	0.00204	0.00275	0.00474
343.15 K	0.00457	0.00248	0.00339	0.00562
